Assay results: publication PMC8571378, “Reversion analysis reveals the in vivo immunogenicity of a poorly MHC I-binding cancer neoepitope” (Nature Communications, 2021)

Assays:
Meth A [1] = assay: Tumor rejection (immunization-challenge) assay; tumor growth AUC and tumor rejection score (TRS); type: in vivo, BALB/cJ mice
Method: Each line represents tumor growth in a single mouse (n = 5 mice per group). AUC for each group is plotted in the panel on the right. Data are presented as mean ± SD. P values were calculated using 1-way ANOVA test adjusted for multiple comparisons (Tukey’s multiple comparison test). c Several truncated versions of the 18-mer Ccdc85c^MUT peptide were tested in tumor rejection assay. BALB/cJ mice were immunized and tumor challenged. Each line represents tumor growth in a single mouse. Although mice were immunized with individual peptides, the data for multiple peptides are grouped into one with the composition of the peptides shown on the right. The tumor rejection data for individual peptides are shown in Supplementary Fig. 1. Tumor rejection score (TRS) for each neoepitope is shown in the yellow box, where five represents a complete tumor protection and zero means no tumor rejection. d On the left panel, total Area Under the Curve (AUC) scores for each group in B are plotted. […] Error bars represent standard deviation (SD). […] P values were calculated using 1-way ANOVA test adjusted for multiple comparisons. […] Matched peak lists for the “heavy” and “light” ions were extracted and monitored, while only single charge y ions were plotted. See Methods for details. f Predicted (by NetMHC4.0) and measured IC50 values of the binding of candidate precise neoepitopes of Ccdc85c^MUT to K^d are shown. […] The affinities of the MS/TRS predicted neoepitopes were also measured for D^d and L^d; measured affinities were below the level of detection.
The mutation is heterozygous and the un-mutated as well as the mutated reads are detected in the transcripts. […] All mice were challenged with the Meth A cells, and tumor rejection was monitored (Fig. 1b upper panel). […]
Area under the curve (AUC) is used as a tool to measure tumor growth. Briefly, AUC was calculated by selecting “Curves & Regression” and then “Area under curve” from the “analyze” tool, using the Prism 5.0 (GraphPad). […]

Meth A [2] = assay: CD4 depletion (GK1.5) in immunized, Meth A-challenged mice; type: in vivo, BALB/cJ mice
Text: In order to determine if any peptides within Ccdc85c^MUT could be presented by MHC II molecules, we analyzed the interaction of H2-A^d and H2-E^d with TYIRPFETKVK, YIRPFETKVK and IRPFETKVK as well as their wild type counterparts, using a cell-surface density assay. In this assay, β-chains of H2-Ab1^d or H2-Eb1^d are expressed in fusion with the peptide of interest and the amount of cell-surface MHC II, as a measure of intrinsic stability of MHC II, is quantified in engineered conditions. The measured cell-surface MHC density correlates well with the actual affinity of the peptide to MHC II. […] This was observed when CD4 depletion was carried out during the priming phase alone (as in Supplementary Fig. 2b), or throughout the entire experiment including the effector phase (i.e. post tumor challenge).
Supplementary Fig. 2. Assessing CD4 response to Ccdc85c . a Presentation of Ccdc85cMUT and Ccdc85cWT peptides by H2-IA and H2-IE are measured by cell-surface density assay. The y-axis indicates MHC/GFP (ratio of MHC MFI to GFP MFI) for MHC II-peptide, normalized to the MHC/GFP of the negative control peptide, G9, 9-mer all-glycine. Four technical and two independent biological repeats of this experiment have been practiced. The following additional negative control peptides are used: G12 (12-mer all-glycine) and GGS12 (4x(glycine-glycine-serine). b. Naïve BALB/cJ mice were injected with 250 µg of CD4 depleting GK1.5 antibody or isotype control during the priming phase (6 days before the first immunization). Mice were immunized, as described in the Methods, with Ccdc85cMUT and were challenged with 95,000 Meth A cells. The differences between tumor growth curves […]
(1 picture or pasted object on this page, not shown here)

Meth A [3] = conditions: anti-CD8 antibody during the priming phase; control antibody without effect; as previously described; cited from earlier work
Text: The mutation is heterozygous and the un-mutated as well as the mutated reads are detected in the transcripts. BALB/cJ bone marrow derived dendritic cells (BMDCs) pulsed with an 18-mer peptide with the mutant amino acid near the center ([…]) or un-mutated peptide ([…]), were used to immunize BALB/cJ mice. All mice were challenged with the Meth A cells, and tumor rejection was monitored (Fig. 1b upper panel).

## DPSSTYIRPFETKVKLLD [18-mer peptide with the mutant amino acid near the center]
Meth A [1]; BALB/cJ mice immunized twice, CTLA4 blockade
  tumor rejection (in words): potent tumor rejection or control in all mice
Meth A [1]; BALB/cJ mice, BMDCs pulsed with 40 µg peptide, two immunizations one week apart, CTLA4 blockade (9D9), scale 0 (no rejection) to 5 (100% of mice)
  Tumor rejection score (TRS): 5.0
Meth A [2]; 250 µg GK1.5, priming phase (6 days before first immunization), 95,000 Meth A cells, listed as Ccdc85cMUT
  effect of CD4 T cell depletion on tumor rejection: not statistically significant
Meth A [2]; 250 µg GK1.5, priming phase (6 days before first immunization), 95,000 Meth A cells, listed as Ccdc85c^MUT
  effect of CD4 T cell depletion on tumor rejection: did not lead to reproducible and statistically significant abrogation of tumor rejection
Meth A [2]; depletion throughout the entire experiment including the effector phase
  effect of CD4 T cell depletion on tumor rejection: did not lead to reproducible and statistically significant abrogation of tumor rejection
Meth A [3]
  effect of CD8 depletion on anti-tumor activity: abrogated
